According to article PMC11600623 (Clinical and Translational Science, 2024):
Where two headings read alike, the source gives them in different places.

Experiments:
Format in all cases: in vivo, human
[1] = Influence of covariates on steady-state exposure metrics
[2] = Population PK model of AC886
[3] = Population PK model of quizartinib
[4] = final model, typical subject, f MET fixed to 0.5
[5] = newly diagnosed AML vs R/R AML and non-AML reference
[6] = residual unexplained variability
[7] = newly diagnosed AML vs R/R AML reference

With `CC(C)(CO)c1cc(NC(=O)Nc2ccc(-c3cn4c(n3)sc3cc(OCCN5CCOCC5)ccc34)cc2)no1` [AC886] the “Change of exposure compared to all other race categories” value ([1]; Black race, median difference) was about 0.7 fold, the “IIV (CV) for CLAC886” value ([2]; AML patients) was 74% and the “Interindividual variability of systemic clearance” value ([2]; abstract statement for both moieties) was “approximately 70 % coefficient of variation”. For the same molecule, the “Fractional change in CLAC886 for Black race” value ([2]; final model covariate effect) was 0.488, the “Fractional change in CLAC886 for non-AML subjects” value ([2]; final model covariate effect) was 0.843 and the “Fractional change in CLAC886 with strong CYP3A inhibitors” value ([2]; final model covariate effect) was 0.298. For the same molecule, the “Fractional change in V c,AC886 with strong CYP3A inhibitors” value ([2]; final model covariate effect) was 2.79, the “Q AC886 (apparent intercompartmental clearance)” value ([2]; final model, typical subject) was 3.76 L/h and the “V p,AC886 (apparent peripheral volume of distribution)” value ([2]; final model, typical subject) was 68.5 L. The “CLAC886 (apparent CL of AC886)” value [2, 4] was 4.61 L/h, the “V c,AC886 (apparent central volume of distribution)” value [2, 4] was 8.93 L and the “IIV CLAC886 AML patients” value ([2]; interindividual variability) was 0.740 CV. The “IIV CLAC886 non-AML subjects” value ([2]; interindividual variability) was 0.516 CV, the “IIV V c,AC886” value ([2]; interindividual variability) was 1.36 CV and the “Fractional change in f MET during Consolidation” value [2, 5] was 0.272. For the same molecule, the “Fractional change in f MET during Continuation” value [2, 5] was −0.249, the “Fractional change in f MET during Induction” value [2, 5] was 0.715 and the “Additive RUV log scale AML patients” value [2, 6] was 0.452 CV. The “Additive RUV log scale non-AML subjects” value [2, 6] was 0.312 CV.
For `CC(C)(C)c1cc(NC(=O)Nc2ccc(-c3cn4c(n3)sc3cc(OCCN5CCOCC5)ccc34)cc2)no1` [quizartinib], the “IIV D1” value [3] was 82 % coefficient of variation (CV), the “IIV Q 1,quiz” value [3] was 69 % CV and the “IIV (CV) for F rel” value ([3]; AML patients) was 44%. For the same molecule, the “Age effect on V p1,quiz” value ([3]; exponential covariate model) was 0.0152 1/year, the “D1 (duration of zero-order input to depot compartment)” value ([3]; final model) was 0.710 h and the “Shape box-cox parameter for IIV on F rel for AML patients” value ([3]; final model) was −1.28. For the same molecule, the “T lag (absorption lag time)” value ([3]; final model) was 0.196 h, the “k a (first-order absorption rate constant)” value ([3]; final model) was 1.10 h⁻¹ and the “Fractional change in CLquiz for Black race” value ([3]; final model covariate effect) was −0.261. The “Fractional change in CLquiz with strong CYP3A inhibitors” value ([3]; final model covariate effect) was −0.301, the “Fractional change in F rel with moderate CYP3A inhibitors” value ([3]; final model covariate effect) was 0.116 and the “Fractional change in F rel with strong CYP3A inhibitors” value ([3]; final model covariate effect) was 0.273. For the same molecule, the “Fractional change in V c,quiz for females” value ([3]; final model covariate effect) was −0.169, the “Fractional change in k a for non-AML subjects” value ([3]; final model covariate effect) was −0.188 and the “Q 1,quiz (apparent intercompartmental clearance 1)” value ([3]; final model, typical subject) was 40.7 L/h. The “Q 2,quiz (apparent intercompartmental clearance 2)” value ([3]; final model, typical subject) was 0.757 L/h, the “V p1,quiz (apparent peripheral volume of distribution 1)” value ([3]; final model, typical subject) was 312 L and the “V p2,quiz (apparent peripheral volume of distribution 2)” value ([3]; final model, typical subject) was 91.9 L. For the same molecule, the Vd ([3]; human, plasma, oral) was 371 L, the clearance ([3]; human, plasma, oral) was 111 mL/min and the “IIV D1” value ([3]; interindividual variability) was 0.821 CV. For the same molecule, the “IIV F rel AML patients” value ([3]; interindividual variability) was 0.444 CV, the “IIV F rel non-AML subjects” value ([3]; interindividual variability) was 0.256 CV and the “IIV Q 1,quiz” value ([3]; interindividual variability) was 0.691 CV. The “IIV T lag” value ([3]; interindividual variability) was 0.647 CV, the “IIV V c,quiz” value ([3]; interindividual variability) was 0.186 CV and the IIV k a ([3]; interindividual variability) was 0.423 CV. The “Fractional change in F rel during Consolidation” value [3, 7] was −0.192, the “Fractional change in F rel during Continuation” value [3, 7] was 0.418 and the “Fractional change in F rel during Induction” value [3, 7] was −0.419. The “F rel for non-AML subjects” value ([3]; relative to AML patients) was 1.73, the “Additive RUV log scale AML patients” value [3, 6] was 0.440 CV and the “Additive RUV log scale non-AML subjects” value [3, 6] was 0.102 CV. The Increase of exposure ([1]; concomitant administration of strong CYP3A inhibitors) was about 2 fold, the “Exposure in non-AML subjects compared to AML patients” value ([1]; higher in non-AML subjects) was “approximately 1.7 fold” and the “Increase of steady-state area under the curve during the dosing interval (AUCss)” value ([1]; use of strong CYP3A inhibitors) was 1.8 fold.
